Test results published in US20250041312A1, “METHODS OF ADMINISTERING A MODULATOR OF HEMOGLOBIN” (Global Blood Therapeutics, Inc., priority 2021, published 2025).
Like-named read-outs stand apart in the source and are kept apart here. Marks after values point to notes of the source that are not given here.

Experiments:
Format in all cases: in vivo, human
[1] = Single 100 mg dose PK in SCD subjects; conditions: for AUC(0-t) / Cmax / half-life / Tmax: human; for AUC(0-t) / Cmax: 100 mg; for Tmax: median
Description: The PK profile of a single 100 mg dose in whole blood and plasma was evaluated using standard noncompartmental analysis. The preliminary PK parameter estimates of Compound I in whole blood from SCD subjects differed from healthy subjects in terms of elimination t½, AUC, Tmax, and blood to plasma ratio. In brief, the elimination t½ and Tmax were nearly 3× faster or occurred earlier, respectively, in SCD than in healthy subjects, and the blood to plasma ratio was about 30% of the values in healthy subjects (most likely due to the fewer RBCs compared to healthy subjects). For the plasma compartment, the differences between the 2 populations were most notable in terms of elimination t1/2, which again was about 2.5 times faster in SCD.

[2] = SCD cohort clinical measures of anemia and hemolysis (Hb, hematocrit, hemolysis markers)
Description: (§1) After a washout period of at least 56 days (so that elimination PK of Compound I could be assessed), the patients were administered a loading dose of 300 mg per day of Compound I for one day followed by 200 mg per day of Compound I for one day, and then were administered a maintenance dose of 50 mg per day of Compound I for five weeks (“MAD-1 Cohort”). The same patients then received another loading dose of 500 mg per day of Compound I for one day followed by 400 mg per day of Compound I for one day, and then were administered another maintenance dose of 100 mg per day of Compound I for three weeks (“MAD-2 Cohort”). The total treatment period of the MAD-1 Cohort and MAD-2 Cohort was 8 weeks.
Primary endpoints were safety and tolerability. Key secondary endpoints included PK and the relationship between time-matched Compound I concentrations and changes in clinical measures of anemia and hemolysis from baseline.
(§2) Following the conclusion of the MAD-2 study and a washout period of about 8 months, the selected patients (n=4) were administered a loading dose of 300 mg BID for 4 days, followed thereafter by a maintenance dose of 150 mg QD (MAD-3 Cohort).
Primary endpoints were safety and tolerability. Key secondary endpoints included PK and the relationship between time-matched Compound I concentrations and the changes in clinical measures of anemia and hemolysis from baseline.

[3] = SCD cohort PK after repeated dosing; conditions: for Cmax: 150 mg
Description: as §1, §2
The concentrations of Compound I in whole blood and plasma at week 6 in patients who participated in the MAD-3 cohort are shown in Table 19.

[4] = Multiple ascending dose (MAD) study in healthy volunteers: safety (TEAEs); conditions: blinded; for Number of SAEs / Number of TEAEs / Number of TEAEs grade ≥ 3 / Number of TEAEs leading to study drug discontinuation / Number of drug-related TEAEs: HV MAD, n=10 incl. placebo
Description: To evaluate the safety and tolerability of multiple ascending doses (MAD) of Compound I, seven healthy volunteers aged 18 to 55 years old were administered a loading dose of 300 mg of Compound I for 3 days, followed by maintenance doses of 15 mg, 25 mg, 50 mg, or 75 mg of Compound I for 14 days. Three healthy volunteers aged 18 to 55 years old were administered placebo for 14 days. Primary endpoints were safety and tolerability; key secondary endpoints included PK and effect on electrocardiogram (ECG) parameters.
Another study was initiated in healthy volunteer aged 18-55 years old to evaluate the safety and tolerability of multiple ascending doses of Compound I. Four cohorts of 10 subjects each (n=7 Compound I, n=3 placebo) were evaluated in a sequential double-blind manner. To reach steady state levels each subject received a loading dose regimen for 3 or 4 days followed by once daily medication for up to 14 days. Primary endpoints were safety and tolerability; key secondary endpoints included PK and effect on electrocardiogram (ECG) parameters. Table 7 below provides an overview of the doses of Compound I or placebo that were used in each cohort.
Endpoints were safety (clinical laboratory test results, adverse events, electrocardiogram […] parameters, physical examination findings) and tolerability, and PK.

[5] = MAD study in healthy volunteers: whole blood and plasma PK; conditions: for Cmax / Tmax / AUC(0-t) / concentration at 14 day: human; for Tmax: median; for AUC(0-t): read-out: AUC0-24; for concentration at 14 day: read-out: Cmin
[6] = plasma, SCD subjects n=6, single 100 mg, geometric mean
[7] = whole blood, SCD single 100 mg, mean
[8] = whole blood, SCD subjects n=6, single 100 mg, blood, geometric mean
[9] = MAD-3 (150 mg QD) week 6, SCD patient 0003 (did not adhere to regimen)
[10] = MAD-3 (150 mg QD) week 6, SCD patient 0004
[11] = MAD-3 (150 mg QD) week 6, SCD patient 0005
[12] = six SCD patients, 8 weeks (MAD-1 then MAD-2)
[13] = HV MAD Day 14, 15 mg QD maintenance, plasma
[14] = HV MAD Day 14, 15 mg QD maintenance, whole blood
[15] = HV MAD Day 14, 25 mg QD maintenance, plasma
[16] = HV MAD Day 14, 25 mg QD maintenance, whole blood
[17] = HV MAD Day 14, 50 mg QD maintenance, plasma
[18] = HV MAD Day 14, 75 mg QD maintenance, plasma
[19] = HV MAD Day 14, 75 mg QD maintenance, whole blood

B:P ratio (mean AUC0-t blood:mean AUC0-t plasma) ([1]; SCD single 100 mg): 69.3
B:P ratio AUC0-inf ([1]; SCD subjects n=6, single 100 mg): 69.3
t½ ([1]; SCD subjects n=6, single 100 mg, blood, geometric mean): 235 h
AUC(0-t) [1, 6]: 67.2 µg·h/mL
Cmax [1, 6]: 1010 ng/mL
AUC(0-t) [1, 7]: 4690 µg·h/mL
Cmax [1, 7]: 16700 ng/mL
AUC(0-t) [1, 8]: 4540 µg·h/mL
Cmax [1, 8]: 16200 ng/mL
half-life ([1]; SCD single 100 mg, whole blood, mean, read-out: t1/2 (converted)): 235 h
Tmax ([1]; SCD single 100 mg, whole blood): 8 h
half-life ([1]; SCD subjects n=6, single 100 mg, plasma, geometric mean, read-out: t½ (converted)): 252 h
Tmax ([1]; SCD subjects n=6, single 100 mg, plasma): 1.5 h
blood to plasma ratio in SCD as share of the values in healthy subjects ([1]; single 100 mg): about 30%
elimination t1/2 in plasma, times faster in SCD ([1]; single 100 mg, plasma): about 2.5 times
Tmax in whole blood, times earlier in SCD than in healthy subjects ([1]; single 100 mg, whole blood): ~3 ×
elimination t½ in whole blood, times faster in SCD than in healthy subjects ([1]; single 100 mg, whole blood): ~3 ×
time to steady-state concentrations with model-selected first doses ([3]; SCD, loading doses followed by 50 mg and 100 mg second doses (FIG. 15)): ≤ 1 week
half-life ([3]; human, in vivo, SCD, after the last dose (MAD-2), assessed over about 15 weeks, read-out: elimination t1/2 (converted)): ~240 h
Cmax ([3]; human, plasma, MAD-3 (150 mg QD) week 6, SCD patient 0001, read-out: Plasma (Cmax) Concentration): 6980 ng/mL
Cmax ([3]; human, plasma, MAD-3 (150 mg QD) week 6, SCD patient 0003 (did not adhere to regimen), read-out: Plasma (Cmax) Concentration): 1610 ng/mL
Cmax ([3]; human, plasma, MAD-3 (150 mg QD) week 6, SCD patient 0004, read-out: Plasma (Cmax) Concentration): 3830 ng/mL
Cmax ([3]; human, plasma, MAD-3 (150 mg QD) week 6, SCD patient 0005, read-out: Plasma (Cmax) Concentration): 7610 ng/mL
Cmax ([3]; human, whole blood, MAD-3 (150 mg QD) week 6, SCD patient 0001, read-out: Whole Blood (Cmax) Concentration): 322000 ng/mL
Cmax ([3]; human, whole blood, MAD-3 (150 mg QD) week 6, SCD patient 0003 (did not adhere to regimen), read-out: Whole Blood (Cmax) Concentration): 36700 ng/mL
Cmax ([3]; human, whole blood, MAD-3 (150 mg QD) week 6, SCD patient 0004, read-out: Whole Blood (Cmax) Concentration): 259000 ng/mL
Cmax ([3]; human, whole blood, MAD-3 (150 mg QD) week 6, SCD patient 0005, read-out: Whole Blood (Cmax) Concentration): 308000 ng/mL
B:P ratio (mean AUC0-24 blood:mean AUC0-24 plasma) ([5]; HV MAD Day 14, 15 mg QD maintenance): 182
B:P ratio (mean AUC0-24 blood:mean AUC0-24 plasma) ([5]; HV MAD Day 14, 25 mg QD maintenance): 194
B:P ratio (mean AUC0-24 blood:mean AUC0-24 plasma) ([5]; HV MAD Day 14, 50 mg QD maintenance): 149
PK among cohorts with multiple ascending doses ([5]; HV, loading 300 mg x 3 days, maintenance 15, 25, 50 or 75 mg x 14 days (FIG. 2)): linear, dose-proportional PK
Cmax ([5]; HV MAD Day 14, 15 mg QD maintenance (loading 200 mg x 3 days), whole blood): 130000 ng/mL
Cmax [5, 13]: 830 ng/mL
Tmax [5, 13]: 1 h
AUC(0-t) [5, 13]: 15.6 µg·h/mL
concentration at 14 day [5, 13]: 680 ng/mL
Tmax [5, 14]: 6 h
concentration at 14 day [5, 14]: 121000 ng/mL
Cmax ([5]; HV MAD Day 14, 25 mg QD maintenance (loading 200 mg x 3 days), whole blood): 141000 ng/mL
Cmax [5, 15]: 900 ng/mL
Tmax [5, 15]: 1.5 h
AUC(0-t) [5, 15]: 15.9 µg·h/mL
concentration at 14 day [5, 15]: 660 ng/mL
Tmax [5, 16]: 2 h
AUC(0-t) [5, 16]: 3090 µg·h/mL
Cmax ([5]; HV MAD Day 14, 50 mg QD maintenance (loading 500/400/400 mg), whole blood): 236000 ng/mL
Cmax [5, 17]: 1990 ng/mL
Tmax [5, 17]: 1 h
AUC(0-t) [5, 17]: 34.5 µg·h/mL
concentration at 14 day [5, 17]: 1450 ng/mL
concentration at 14 day ([5]; HV MAD Day 14, 50 mg QD maintenance, whole blood): 210000 ng/mL
Cmax [5, 18]: 2740 ng/mL
Tmax [5, 18]: 1 h
AUC(0-t) [5, 18]: 48.6 µg·h/mL
concentration at 14 day [5, 18]: 2220 ng/mL
Tmax [5, 19]: 3 h
AUC(0-t) [5, 19]: 6760 µg·h/mL
Compound: O=Cc1c(O)cccc1OC[C@@H]1COCCN1C(=O)c1cccnc1CCO [Compound I, (S)-2-hydroxy-6-((4-(2-(2-hydroxyethyl)nicotinoyl)morpholin-3-yl)methoxy)benzaldehyde]
average hematocrit after washout (returned to baseline levels) ([2]; 5 SCD subjects, after 15-week washout, vs. 23.02%): 23.46%
Hb levels ([2]; MAD-3 (150 mg QD) week 6, SCD patient 0001): 12.9 g/dL
Hb levels [2, 9]: 8.9 g/dL
Hematocrit [2, 9]: 27.6%
Hb levels [2, 10]: 13.6 g/dL
Hematocrit [2, 10]: 37.8%
Hb levels [2, 11]: 10.9 g/dL
Hematocrit [2, 11]: 30.9%
decrease in mean hemoglobin after the last dose ([2]; SCD, 15-week washout after MAD-2): 2.2 g/dL
mean increase in hematocrit from baseline ([2]; SCD, baseline to end of week 8 of treatment): 6.5%
hemolysis markers (reticulocytes, absolute reticulocytes, LDH, indirect bilirubin) ([2]; all six SCD subjects, 8 weeks (MAD-1 then MAD-2)): improvements in hemolysis markers
Hb increase at the end of the study (maximum) [2, 12]: up to 1.3 g/dL
Hb mean increase at the end of the study [2, 12]: 2.3 g/dL
tolerability ([4]; HV MAD study): well tolerated
Number of SAEs ([4]; 15 mg maintenance cohort): 0
Number of TEAEs ([4]; 15 mg maintenance cohort): 8
Number of TEAEs grade ≥ 3 ([4]; 15 mg maintenance cohort): 0
Number of TEAEs leading to study drug discontinuation ([4]; 15 mg maintenance cohort): 0
Number of drug-related TEAEs ([4]; 15 mg maintenance cohort, grade 1 somnolence): 1^b
Number of SAEs ([4]; 25 mg maintenance cohort): 0
Number of TEAEs ([4]; 25 mg maintenance cohort): 5
Number of TEAEs grade ≥ 3 ([4]; 25 mg maintenance cohort): 0
Number of TEAEs leading to study drug discontinuation ([4]; 25 mg maintenance cohort): 0
Number of drug-related TEAEs ([4]; 25 mg maintenance cohort, vomiting and nausea in 1 participant): 2^c
Number of SAEs ([4]; 50 mg maintenance cohort): 0
Number of TEAEs ([4]; 50 mg maintenance cohort): 17
Number of TEAEs grade ≥ 3 ([4]; 50 mg maintenance cohort): 1
Number of TEAEs leading to study drug discontinuation ([4]; 50 mg maintenance cohort): 0
Number of drug-related TEAEs ([4]; 50 mg maintenance cohort, headaches and dizziness in 1 participant): 2^d
Number of SAEs ([4]; 75 mg maintenance cohort): 0
Number of TEAEs ([4]; 75 mg maintenance cohort): 3
Number of TEAEs grade ≥ 3 ([4]; 75 mg maintenance cohort): 0
Number of TEAEs leading to study drug discontinuation ([4]; 75 mg maintenance cohort): 0
Number of drug-related TEAEs ([4]; 75 mg maintenance cohort): 0
